Laboratory results published in article PMC2736327 (Molecular carcinogenesis, 2009).

Biological target: autotaxin (ATX) (Homo sapiens, UniProt Q13822)
Type: biochemical

VPC8a202
Ki: ~390 nM
